Data reported in ChEMBL document CHEMBL3991601, “The target landscape of clinical kinase drugs” (Science, 2017).
The source made the active and inactive calls. Rule as the data show it, for most assays here: actives have a measured Kd and inactives only a lower limit.

Columns and labels:
LIM domain kinase 1 = LIM domain kinase 1 (Homo sapiens, UniProt P53667)
[1] = molecular target: AP2-associated protein kinase 1 (Homo sapiens, UniProt Q2M2I8)
[2] = molecular target: Serine/threonine-protein kinase SIK3 (Homo sapiens, UniProt Q9Y2K2)
Chain of Serine/threonine-protein kinase SIK3 (Q9Y2K2 whole entry): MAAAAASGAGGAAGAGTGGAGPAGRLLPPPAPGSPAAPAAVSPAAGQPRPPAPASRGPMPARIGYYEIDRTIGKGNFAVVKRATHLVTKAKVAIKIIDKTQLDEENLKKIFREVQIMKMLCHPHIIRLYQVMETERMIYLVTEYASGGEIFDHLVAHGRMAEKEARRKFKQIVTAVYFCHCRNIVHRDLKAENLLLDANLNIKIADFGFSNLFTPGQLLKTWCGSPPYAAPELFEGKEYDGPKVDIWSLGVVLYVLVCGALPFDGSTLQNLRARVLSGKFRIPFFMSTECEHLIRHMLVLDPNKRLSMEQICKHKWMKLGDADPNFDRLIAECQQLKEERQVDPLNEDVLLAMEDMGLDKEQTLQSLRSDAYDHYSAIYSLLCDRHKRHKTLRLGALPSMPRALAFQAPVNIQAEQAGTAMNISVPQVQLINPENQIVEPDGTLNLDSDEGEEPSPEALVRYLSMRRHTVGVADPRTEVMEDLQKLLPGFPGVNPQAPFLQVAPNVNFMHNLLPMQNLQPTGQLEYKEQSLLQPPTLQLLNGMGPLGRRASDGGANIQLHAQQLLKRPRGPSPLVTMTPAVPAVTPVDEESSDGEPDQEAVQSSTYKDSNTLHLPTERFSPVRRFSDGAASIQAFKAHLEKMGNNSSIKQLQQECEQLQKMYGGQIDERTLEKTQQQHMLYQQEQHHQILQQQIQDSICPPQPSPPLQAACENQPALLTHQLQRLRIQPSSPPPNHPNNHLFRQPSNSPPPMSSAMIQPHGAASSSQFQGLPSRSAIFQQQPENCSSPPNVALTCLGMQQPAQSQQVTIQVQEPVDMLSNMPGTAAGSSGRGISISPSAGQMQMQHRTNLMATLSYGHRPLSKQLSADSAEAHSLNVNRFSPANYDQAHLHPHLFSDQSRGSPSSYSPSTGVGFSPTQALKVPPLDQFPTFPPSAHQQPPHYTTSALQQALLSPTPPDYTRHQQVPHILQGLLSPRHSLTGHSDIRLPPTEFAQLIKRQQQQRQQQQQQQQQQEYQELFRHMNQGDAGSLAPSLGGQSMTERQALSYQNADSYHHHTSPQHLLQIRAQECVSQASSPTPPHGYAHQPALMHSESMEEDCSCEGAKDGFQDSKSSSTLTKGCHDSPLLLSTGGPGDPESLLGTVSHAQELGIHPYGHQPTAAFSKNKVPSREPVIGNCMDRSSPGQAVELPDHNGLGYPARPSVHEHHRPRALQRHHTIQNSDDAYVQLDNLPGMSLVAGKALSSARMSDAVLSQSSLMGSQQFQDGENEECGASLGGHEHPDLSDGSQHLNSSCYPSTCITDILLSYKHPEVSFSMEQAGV

Ephrin type-B receptor 3 = molecular target: T1, Ephrin type-B receptor 3 (Homo sapiens, UniProt P54753)
T1 sequence (P54753 whole entry): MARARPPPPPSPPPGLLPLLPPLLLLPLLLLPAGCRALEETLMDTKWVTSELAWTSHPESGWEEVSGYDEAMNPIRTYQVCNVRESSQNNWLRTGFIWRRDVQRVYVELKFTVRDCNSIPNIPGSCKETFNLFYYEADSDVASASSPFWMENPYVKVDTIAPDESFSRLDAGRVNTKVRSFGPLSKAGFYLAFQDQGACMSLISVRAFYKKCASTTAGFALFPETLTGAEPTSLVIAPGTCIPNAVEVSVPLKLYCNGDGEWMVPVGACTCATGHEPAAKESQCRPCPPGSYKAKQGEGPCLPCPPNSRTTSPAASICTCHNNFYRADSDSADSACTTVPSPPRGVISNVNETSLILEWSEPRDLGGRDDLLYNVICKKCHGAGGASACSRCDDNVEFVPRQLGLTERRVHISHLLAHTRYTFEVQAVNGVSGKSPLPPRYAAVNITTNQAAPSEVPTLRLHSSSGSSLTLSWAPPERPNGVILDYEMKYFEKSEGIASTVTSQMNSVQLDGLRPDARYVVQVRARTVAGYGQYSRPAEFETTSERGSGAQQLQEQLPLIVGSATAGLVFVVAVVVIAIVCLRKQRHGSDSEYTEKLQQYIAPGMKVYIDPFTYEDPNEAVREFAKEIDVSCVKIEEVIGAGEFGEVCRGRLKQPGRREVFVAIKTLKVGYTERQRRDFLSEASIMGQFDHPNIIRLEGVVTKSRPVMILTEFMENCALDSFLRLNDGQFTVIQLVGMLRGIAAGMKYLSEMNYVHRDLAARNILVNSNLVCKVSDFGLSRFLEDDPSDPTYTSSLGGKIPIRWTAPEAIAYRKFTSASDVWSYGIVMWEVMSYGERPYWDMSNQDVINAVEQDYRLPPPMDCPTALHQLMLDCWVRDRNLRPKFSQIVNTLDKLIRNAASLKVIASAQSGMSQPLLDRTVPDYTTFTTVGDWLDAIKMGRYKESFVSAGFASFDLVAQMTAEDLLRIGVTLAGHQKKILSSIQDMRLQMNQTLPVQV

[3] = molecular target: Platelet-derived growth factor receptor beta (Homo sapiens, UniProt P09619)
[4] = molecular target: Myosin light chain kinase, smooth muscle (Homo sapiens, UniProt Q15746)
[5] = molecular target: Protein kinase C beta type (Homo sapiens, UniProt P05771)
Chain of Protein kinase C beta type (P05771 whole entry): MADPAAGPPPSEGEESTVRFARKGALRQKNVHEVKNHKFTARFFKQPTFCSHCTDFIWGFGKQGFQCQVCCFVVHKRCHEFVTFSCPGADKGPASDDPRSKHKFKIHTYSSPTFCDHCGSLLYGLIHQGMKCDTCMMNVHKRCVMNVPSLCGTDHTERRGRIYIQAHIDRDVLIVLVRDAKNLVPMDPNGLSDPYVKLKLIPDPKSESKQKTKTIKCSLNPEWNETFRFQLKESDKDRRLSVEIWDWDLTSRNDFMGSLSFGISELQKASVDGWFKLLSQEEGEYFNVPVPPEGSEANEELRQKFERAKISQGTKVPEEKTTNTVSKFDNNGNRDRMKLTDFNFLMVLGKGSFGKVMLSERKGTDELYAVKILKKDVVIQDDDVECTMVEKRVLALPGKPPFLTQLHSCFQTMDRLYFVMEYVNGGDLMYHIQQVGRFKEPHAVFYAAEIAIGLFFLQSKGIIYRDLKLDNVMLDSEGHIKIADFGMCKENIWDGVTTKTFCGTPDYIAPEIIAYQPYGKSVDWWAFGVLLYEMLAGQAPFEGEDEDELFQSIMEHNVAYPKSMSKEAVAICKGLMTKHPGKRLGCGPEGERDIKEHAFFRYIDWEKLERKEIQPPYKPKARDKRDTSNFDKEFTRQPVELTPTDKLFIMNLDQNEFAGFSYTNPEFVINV

[6] = molecular target: T2, Serine/threonine-protein kinase D3 (Homo sapiens, UniProt O94806)
T2 sequence (O94806 whole entry): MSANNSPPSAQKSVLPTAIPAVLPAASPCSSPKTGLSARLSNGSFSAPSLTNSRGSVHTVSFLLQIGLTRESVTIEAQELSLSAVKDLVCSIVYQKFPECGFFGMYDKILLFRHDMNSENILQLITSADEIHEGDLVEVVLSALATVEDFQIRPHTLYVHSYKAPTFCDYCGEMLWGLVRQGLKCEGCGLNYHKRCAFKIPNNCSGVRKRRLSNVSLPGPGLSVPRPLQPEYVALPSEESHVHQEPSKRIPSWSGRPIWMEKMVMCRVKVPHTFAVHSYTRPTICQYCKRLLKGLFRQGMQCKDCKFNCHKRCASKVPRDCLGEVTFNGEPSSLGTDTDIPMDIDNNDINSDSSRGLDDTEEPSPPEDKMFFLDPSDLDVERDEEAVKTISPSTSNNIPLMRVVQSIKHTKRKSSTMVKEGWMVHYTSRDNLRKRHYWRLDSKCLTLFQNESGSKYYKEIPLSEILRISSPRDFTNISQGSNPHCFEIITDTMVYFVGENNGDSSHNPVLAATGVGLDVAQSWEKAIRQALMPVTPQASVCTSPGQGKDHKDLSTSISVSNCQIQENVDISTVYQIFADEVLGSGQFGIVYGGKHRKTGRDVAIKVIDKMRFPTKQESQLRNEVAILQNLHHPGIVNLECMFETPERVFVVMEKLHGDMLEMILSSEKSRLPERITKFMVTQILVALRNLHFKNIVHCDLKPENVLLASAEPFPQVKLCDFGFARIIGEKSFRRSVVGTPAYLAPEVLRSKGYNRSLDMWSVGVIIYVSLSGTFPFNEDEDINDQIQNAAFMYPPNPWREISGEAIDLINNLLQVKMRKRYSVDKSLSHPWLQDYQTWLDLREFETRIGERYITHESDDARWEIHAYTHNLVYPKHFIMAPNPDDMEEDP

[7] = molecular target: Mitogen-activated protein kinase kinase kinase 1 (Homo sapiens, UniProt Q13233)
[8] = molecular target: Tyrosine-protein kinase Fer (Homo sapiens, UniProt P16591)
[9] = molecular target: Serine/threonine-protein kinase N1 (Homo sapiens, UniProt Q16512)
Chain of Serine/threonine-protein kinase N1 (Q16512 whole entry): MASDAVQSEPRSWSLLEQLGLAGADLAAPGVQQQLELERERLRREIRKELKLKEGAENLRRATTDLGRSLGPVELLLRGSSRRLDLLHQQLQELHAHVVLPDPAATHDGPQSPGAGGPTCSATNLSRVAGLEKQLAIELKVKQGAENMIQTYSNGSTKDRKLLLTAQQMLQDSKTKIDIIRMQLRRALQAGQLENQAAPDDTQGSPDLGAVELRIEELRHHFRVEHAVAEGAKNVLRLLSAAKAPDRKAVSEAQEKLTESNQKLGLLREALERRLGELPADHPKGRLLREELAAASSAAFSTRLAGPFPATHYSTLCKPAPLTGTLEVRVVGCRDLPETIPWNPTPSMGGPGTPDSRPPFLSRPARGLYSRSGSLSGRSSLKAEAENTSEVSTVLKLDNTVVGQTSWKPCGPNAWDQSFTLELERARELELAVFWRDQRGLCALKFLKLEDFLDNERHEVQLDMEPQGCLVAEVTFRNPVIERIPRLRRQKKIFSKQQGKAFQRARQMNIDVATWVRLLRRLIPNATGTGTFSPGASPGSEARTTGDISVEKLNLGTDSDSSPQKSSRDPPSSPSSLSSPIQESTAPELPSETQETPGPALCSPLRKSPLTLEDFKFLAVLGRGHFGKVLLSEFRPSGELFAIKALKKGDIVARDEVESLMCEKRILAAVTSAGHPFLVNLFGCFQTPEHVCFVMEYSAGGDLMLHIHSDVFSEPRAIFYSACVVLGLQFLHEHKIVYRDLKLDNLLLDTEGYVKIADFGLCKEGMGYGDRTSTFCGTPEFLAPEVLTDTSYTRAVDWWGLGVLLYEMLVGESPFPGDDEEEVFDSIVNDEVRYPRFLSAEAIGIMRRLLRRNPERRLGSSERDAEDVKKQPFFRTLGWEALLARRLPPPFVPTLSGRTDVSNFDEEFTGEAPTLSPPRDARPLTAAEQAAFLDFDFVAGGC

[10] = molecular target: T3, Probable ATP-dependent RNA helicase DDX6 (Homo sapiens, UniProt P26196)
T3 sequence (P26196 whole entry): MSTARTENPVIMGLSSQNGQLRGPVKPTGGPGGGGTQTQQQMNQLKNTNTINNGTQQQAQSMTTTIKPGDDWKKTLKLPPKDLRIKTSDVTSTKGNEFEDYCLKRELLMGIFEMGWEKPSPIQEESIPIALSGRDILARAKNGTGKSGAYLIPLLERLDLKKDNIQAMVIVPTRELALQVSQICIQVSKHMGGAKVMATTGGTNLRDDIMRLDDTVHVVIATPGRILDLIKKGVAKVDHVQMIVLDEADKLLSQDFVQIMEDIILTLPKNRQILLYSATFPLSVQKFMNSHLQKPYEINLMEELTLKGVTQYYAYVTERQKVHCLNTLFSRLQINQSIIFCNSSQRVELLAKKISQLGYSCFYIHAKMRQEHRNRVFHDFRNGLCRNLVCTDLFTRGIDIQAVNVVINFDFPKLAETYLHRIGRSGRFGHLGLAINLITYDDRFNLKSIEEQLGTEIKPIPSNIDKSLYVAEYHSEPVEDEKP

[11] = molecular target: Ribosomal protein S6 kinase alpha-3 (Homo sapiens, UniProt P51812)
Chain of Ribosomal protein S6 kinase alpha-3 (P51812 whole entry): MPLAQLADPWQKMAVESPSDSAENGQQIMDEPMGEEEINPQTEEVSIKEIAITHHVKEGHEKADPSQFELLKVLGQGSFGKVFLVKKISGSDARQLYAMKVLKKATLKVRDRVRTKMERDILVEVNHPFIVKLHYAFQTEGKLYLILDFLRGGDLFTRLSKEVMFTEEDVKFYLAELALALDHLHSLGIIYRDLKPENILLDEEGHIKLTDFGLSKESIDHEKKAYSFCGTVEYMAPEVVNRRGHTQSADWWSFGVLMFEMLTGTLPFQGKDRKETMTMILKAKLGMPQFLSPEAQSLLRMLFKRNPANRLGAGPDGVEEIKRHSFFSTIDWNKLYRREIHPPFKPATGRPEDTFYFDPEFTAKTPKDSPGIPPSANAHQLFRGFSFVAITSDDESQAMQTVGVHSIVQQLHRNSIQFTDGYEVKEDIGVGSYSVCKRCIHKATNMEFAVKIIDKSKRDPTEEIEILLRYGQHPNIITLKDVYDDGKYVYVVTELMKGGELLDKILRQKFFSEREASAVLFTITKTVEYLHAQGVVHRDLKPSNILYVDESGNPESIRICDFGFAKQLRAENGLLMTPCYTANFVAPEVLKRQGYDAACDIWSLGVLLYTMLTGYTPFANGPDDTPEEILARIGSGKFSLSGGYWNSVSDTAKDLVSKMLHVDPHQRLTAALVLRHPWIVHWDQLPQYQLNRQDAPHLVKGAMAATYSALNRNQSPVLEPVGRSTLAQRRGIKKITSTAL

[12] = molecular target: Serine/threonine-protein kinase N2 (Homo sapiens, UniProt Q16513)
Also: in the data inactive means no Kd found up to 30 µM.

Chain of LIM domain kinase 1 (P53667 whole entry, the tested form may be a part): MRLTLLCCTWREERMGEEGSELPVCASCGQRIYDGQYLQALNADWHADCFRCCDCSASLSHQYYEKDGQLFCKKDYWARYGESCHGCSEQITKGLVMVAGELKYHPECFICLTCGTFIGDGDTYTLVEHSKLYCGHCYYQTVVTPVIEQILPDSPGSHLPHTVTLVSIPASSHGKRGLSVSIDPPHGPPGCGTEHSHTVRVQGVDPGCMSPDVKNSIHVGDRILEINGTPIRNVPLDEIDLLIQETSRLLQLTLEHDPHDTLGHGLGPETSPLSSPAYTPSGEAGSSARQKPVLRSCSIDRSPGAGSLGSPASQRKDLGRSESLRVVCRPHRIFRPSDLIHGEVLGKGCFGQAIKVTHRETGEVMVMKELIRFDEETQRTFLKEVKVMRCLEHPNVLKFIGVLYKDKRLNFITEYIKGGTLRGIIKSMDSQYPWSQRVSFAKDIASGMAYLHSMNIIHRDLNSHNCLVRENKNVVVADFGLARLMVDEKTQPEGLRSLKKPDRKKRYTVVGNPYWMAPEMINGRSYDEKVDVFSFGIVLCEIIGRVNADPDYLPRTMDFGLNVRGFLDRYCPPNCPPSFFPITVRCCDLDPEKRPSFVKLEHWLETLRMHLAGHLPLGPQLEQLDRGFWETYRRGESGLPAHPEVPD

SMILES | Kd (LIM domain kinase 1) | Kd [1] | Kd [2] | Kd (Ephrin type-B receptor 3) | Kd [3] | Kd [4] | Kd [5] | Kd [6] | Kd [7] | Kd [8] | Kd [9] | Kd [10] | Kd [11] | Kd [12]
O=C(NC[C@H](O)CO)c1ccncc1Nc1ccc(I)cc1F [PIMASERTIB] | > 30 µM (inactive) | > 30 µM (inactive) | > 30 µM (inactive) | > 30 µM (inactive) | > 30 µM (inactive) | > 30 µM (inactive) | > 30 µM (inactive) | > 30 µM (inactive) | > 30 µM (inactive) | > 30 µM (inactive) | > 30 µM (inactive) | > 30 µM (inactive) | > 30 µM (inactive) | > 30 µM (inactive)
Cc1cc(-c2cc(OC(=O)c3ccccc3)ccc2Cl)cc2nnc(Nc3ccc(OCCN4CCCC4)cc3)nc12 [TG100-801] | > 30 µM (inactive) | > 30 µM (inactive) | > 30 µM (inactive) | > 30 µM (inactive) | 0.109 µM (active) | > 30 µM (inactive) | > 30 µM (inactive) | > 30 µM (inactive) | > 30 µM (inactive) | > 30 µM (inactive) | > 30 µM (inactive) | > 30 µM (inactive) | > 30 µM (inactive) | > 30 µM (inactive)
O=C(Nc1ccc(OC(F)(F)F)cc1)c1sccc1NCc1ccnc2ccccc12 [OSI-930] | > 30 µM (inactive) | > 30 µM (inactive) | > 30 µM (inactive) | > 30 µM (inactive) | > 30 µM (inactive) | > 30 µM (inactive) | > 30 µM (inactive) | > 30 µM (inactive) | > 30 µM (inactive) | > 30 µM (inactive) | > 30 µM (inactive) | > 30 µM (inactive) | > 30 µM (inactive) | > 30 µM (inactive)
NC[C@@](O)(c1ccc(Cl)cc1)c1ccc(-c2cn[nH]c2)cc1 [AT-13148] | > 30 µM (inactive) | > 30 µM (inactive) | > 30 µM (inactive) | > 30 µM (inactive) | > 30 µM (inactive) | > 30 µM (inactive) | > 30 µM (inactive) | > 30 µM (inactive) | > 30 µM (inactive) | > 30 µM (inactive) | 0.025 µM (active) | > 30 µM (inactive) | > 30 µM (inactive) | 0.009 µM (active)
COc1cc2nccc(Oc3ccc(NC(=O)C4(C(=O)Nc5ccc(F)cc5)CC4)cc3)c2cc1OC [CABOZANTINIB] | > 30 µM (inactive) | > 30 µM (inactive) | > 30 µM (inactive) | > 30 µM (inactive) | > 30 µM (inactive) | > 30 µM (inactive) | > 30 µM (inactive) | > 30 µM (inactive) | > 30 µM (inactive) | > 30 µM (inactive) | > 30 µM (inactive) | > 30 µM (inactive) | > 30 µM (inactive) | > 30 µM (inactive)
